Source: US8011774B2, “Azo dye, colored composition, heat-sensitive transfer recording ink sheet, heat-sensitive transfer recording method, color toner, inkjet ink and color filter” (Fujifilm Corporation, priority 2006, dated 2011)

What was measured:
Format in all cases: physicochemical
[1] = Light stability (light resistance) of transferred dye image under Xenon light; settings: Xenon light 17,000 lux, 7 days; residual ratio of Status A reflection density 1.0
Method: Next, each of the thus image-recorded thermal transfer image-receiving material was exposed to Xenon light (17,000 lux) for 7 days to examine light stability (light resistance) of the dye image. Status A reflection densities after exposure were measured in the portions indicating status A reflection density of 1.0. A stability of the image was evaluated in terms of a residual ratio (percentage) based on the reflection destiny before exposure according to the following three grades:
A: 80% or more, but 100% or less
B: 60% or more, but […]

[2] = Maximum absorption wavelength of absorption spectrum in ethyl acetate solution; settings: 1×10^−6 mol/L, optical path length 10 mm
Method: A mixture of 3.53 g of Intermediate (7a) (0.01 mol), 2.76 g of potassium carbonate (0.02 mol) and dimethylacetamide (15 ml) was stirred at 0° C. To the mixture was gradually dropped 4.23 g (0.03 mol) of methyl iodide. After stirring for 3 hours at room temperature, 50 ml of water was added thereto. After extraction with 50 ml of ethyl acetate, the extracted solution was washed with saturated brine. Then, the extracted solution was concentrated with a rotary evaporator. Thus-obtained residue was purified using a silica gel chromatography (developing solvent: ethyl acetate/hexane=1/4, v/v). A yellow powder of Exemplified compound (7) was obtained. Yield: 3.01 g (82%), Melting Point: 192° C. λmax (ethyl acetate solution) of the Exemplified compound (7) was 442 nm.
Exemplified compounds (1), (5), (8), (9), (10), (13) and (23) were synthesized in the manner described above. In Table 1 shown below, are indicated the maximum absorption wavelength in each of absorption spectra of the thus-obtained Exemplified compounds (1), (5), (8), (9), (10), (13) and (23) in an ethyl acetate solution (Density: 1×10^−6 mol/L, Optical path length: 10 mm) and melting points of these compounds, together with the Exemplified compounds (7) obtained in the Synthesis Examples.

[3] = Deposition of dye with lapse of time in the ink sheet, examined by eye; set-up: key: A: No precipitation is observed.; B: Precipitation is slightly observed.; C: Precipitation is apparently observed; settings: deposition of dye with a lapse of time in the ink sheet
Description: Further, deposition of dyes with a lapse of time in the ink sheet was examined by a native eye, thereby to evaluate based on the following three grades:
A: No precipitation is observed.
B: Precipitation is slightly observed.
C: Precipitation is apparently observed.

[4] = Solubility of dye when preparing ink sheet dye-providing layer coating composition; set-up: key: A: The dye easily dissolves.; B: The dye dissolves.; C: The dye is sparingly soluble, but dissolves; settings: dye 5.5 parts, polyvinylbutyral resin, methyl ethyl ketone/toluene (1/1) coating composition
Method: As a support, was used a 6 μm thick polyester film, a back surface of which had been subjected to a heat resistant lubricating processing with a 1 μm thick thermosetting acrylic resin (Lumirror (trade name), a product of Toray). On the front surface of the support, the following dye-providing layer-coating composition was coated by a wire bar coating so that a dry thinness of the dye-providing layer became 1 μm. Thus, Ink sheet 1 was prepared.
Solubility of these dyes contained in these ink sheets were evaluated according to the following three grades;
A: The dye easily dissolves.
C: The dye is sparingly soluble, but dissolves.

| Light resistance [1] | Maximum absorption wavelength [2] | Precipitation [3] | Solubility [4] | SMILES |
| --- | --- | --- | --- | --- |
| – | 471 nm | – | – | Cc1nsc(/N=N/c2c(C(C)(C)C)nn3c(C(C)C)nn(C)c23)c1C#N [Dye (13)] |
| A (80% or more, but 100% or less) | – | A | A | Cc1nn(C)c2c(/N=N/c3nc4ccccc4n3C)c(C(C)(C)C)nn12 [Dye (14)] |
| A (80% or more, but 100% or less) | 449 nm | A | A | CCSc1nnc(/N=N/c2c(C(C)(C)C)nn3c(C(C)C)nn(CC)c23)s1 [Dye (23)] |
| A (80% or more, but 100% or less) | – | A | A | CCSc1nnc(/N=N/c2c(C(C)(C)C)nn3nc(C(C)C)n(C)c23)s1 [Dye (28)] |
| B (60% or more, but less than 100%) | – | B | B | CCSc1nnc(N=Nc2c(C(C)(C)C)nn3c(C(C)C)n[nH]c23)s1 [Dye for Comparison 1, reference compound] |
| C (less than 60%) | – | A | A | CCN(CCOc1ccc(C2CCCCC2)cc1)c1ccc(C=C(C#N)C#N)cc1 [Dye for Comparison 3, reference compound] |

Continued, compound first:

| SMILES | Light resistance [1] | Maximum absorption wavelength [2] | Precipitation [3] | Solubility [4] |
| --- | --- | --- | --- | --- |
| Cc1nn2nc(C(C)(C)C)c(N=Nc3c(C#N)c(C(C)(C)C)nn3C)c2n1C [Dye (1)] | A (80% or more, but 100% or less) | 434 nm | A | A |
| Cc1nn(C)c2c(N=Nc3c(C#N)c(C(C)(C)C)nn3C)c(C(C)(C)C)nn12 [Dye (7)] | A (80% or more, but 100% or less) | 442 nm | A | A |
| CCn1nc(C(C)(C)C)c(C#N)c1/N=N/c1c(C(C)(C)C)nn2c(C)nn(CC)c12 [Dye (8)] | A (80% or more, but 100% or less) | 441 nm | A | A |
| CCc1nn(C)c2c(/N=N/c3c(C#N)c(C(C)(C)C)nn3C)c(C(C)(C)C)nn12 [Dye (9)] | A (80% or more, but 100% or less) | 441 nm | A | A |
| CC(C)c1nn(C)c2c(/N=N/c3c(C#N)c(C(C)(C)C)nn3C)c(C(C)(C)C)nn12 [Dye (10)] | A (80% or more, but 100% or less) | 443 nm | A | A |
